Test results as given in ChEMBL document CHEMBL1201862, “PubChem BioAssay data set” (2004).
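The compound was tested at five concentrations on cells cultured in 96-well plates, with a 48-hour exposure period. At the GI50, growth is halved.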 Calls of active or inactive are those of the source. Cut-off read from the data, not from the text of the source: active = GI50 up to about 1.1 µM and inactive = higher.

Experiments:
Assay in all cases: NCI tumour cell line growth inhibition, 48 h
[1] = system: CAKI-1
[2] = system: DU-145
[3] = system: HCC 2998
[4] = system: HCT-116
[5] = system: M14
[6] = system: MDA-MB-231
[7] = system: MDA-N
[8] = system: NCI/ADR-RES
[9] = system: OVCAR-3
[10] = system: OVCAR-5
[11] = system: OVCAR-8
[12] = system: PC-3
[13] = system: SF-268
[14] = system: SK-OV-3
[15] = system: T47D
[16] = system: UO-31
[17] = system: A549
[18] = system: COLO 205
[19] = system: Malme-3M
[20] = system: SN12C

Measured: GI50

CC1=NN(c2cccc(Cl)c2)C2(C1=Cc1ccccc1)C(Cl)C(=O)N2c1nc2ccccc2s1 (stereo not given)
inactive: [1] 17.7 µM | [2] 15 µM | [3] 17.3 µM | [4] 16.7 µM | [5] 20.4 µM | [6] 18.4 µM | [7] 19.8 µM | [8] 20.4 µM | [9] 16.3 µM | [10] 21.3 µM | [11] 32.1 µM | [12] 16.8 µM | [13] 23.2 µM | [14] 20.9 µM | [15] 18.5 µM | [16] 16.3 µM

O=C1C=CC2(C=C1)O[C@H](CCc1ccccc1)[C@@H](CCc1ccccc1)O2
inactive: [17] 43.7 µM | [1] > 100 µM | [18] > 100 µM | [2] > 100 µM | [4] 99.3 µM | [5] > 100 µM | [6] > 100 µM | [7] > 100 µM | [19] > 100 µM | [8] > 100 µM | [9] > 100 µM | [10] > 100 µM | [11] > 100 µM | [12] > 100 µM | [13] 61.8 µM | [14] > 100 µM | [20] > 100 µM | [15] 76.4 µM | [16] > 100 µM

CSc1nc2c(=O)n(-c3ccccc3)c(=S)n(-c3ccccc3)c2s1
inactive: [17] > 100 µM | [18] > 100 µM | [2] > 100 µM | [3] > 100 µM | [4] > 100 µM | [5] 70 µM | [6] 49.2 µM | [7] > 100 µM | [19] 64.1 µM | [8] 85.1 µM | [9] 67 µM | [10] > 100 µM | [11] > 100 µM | [12] > 100 µM | [13] 65 µM | [14] 81.3 µM | [20] 37.9 µM | [15] > 100 µM | [16] > 100 µM

CN(C)/C=N/c1ccc2[nH]c3ccccc3c2c1
inactive: [17] 39.7 µM | [1] 35.2 µM | [18] 16.6 µM | [2] > 100 µM | [4] 34.6 µM | [5] 15.1 µM | [6] 19.8 µM | [7] 18.2 µM | [19] 22.1 µM | [8] 53.7 µM | [9] > 100 µM | [10] 28.4 µM | [11] 37.7 µM | [12] 36.1 µM | [13] 64.6 µM | [14] 61.7 µM | [20] 52.4 µM | [15] 30.6 µM | [16] 29 µM

COC(=O)[C@H]1[C@H](C(=O)OC)[C@@H](C)c2c(ccc3c2[nH]c2ccccc23)[C@@H]1C
inactive: [17] 31.1 µM | [1] 68.4 µM | [18] 66.7 µM | [2] 41.5 µM | [4] 34.6 µM | [5] 24.2 µM | [6] 25.6 µM | [7] 90.8 µM | [19] 49.8 µM | [8] > 100 µM | [9] 69.2 µM | [10] > 100 µM | [11] 46.3 µM | [12] 37.4 µM | [13] 48.9 µM | [14] 92.9 µM | [20] 13.2 µM | [15] 13 µM | [16] > 100 µM

Cc1ccc(/C=C/C(=O)Oc2ccc(/C=C3\CCC/C(=C\c4ccc(OC(=O)/C=C/c5ccc(C)cc5)cc4)C3=O)cc2)cc1
inactive: [17] > 100 µM | [1] 79.8 µM | [18] > 100 µM | [2] > 100 µM | [3] > 100 µM | [4] > 100 µM | [5] > 100 µM | [6] 28.8 µM | [7] > 100 µM | [8] 59.3 µM | [9] > 100 µM | [10] > 100 µM | [11] 67.1 µM | [12] > 100 µM | [13] > 100 µM | [20] > 100 µM | [15] 92.3 µM | [16] > 100 µM

CCOC(=O)CCCSCCCC(=O)CCCSCCCC(=O)OCC
inactive: [17] > 100 µM | [18] > 100 µM | [2] > 100 µM | [3] > 100 µM | [4] > 100 µM | [5] > 100 µM | [6] > 100 µM | [7] > 100 µM | [8] > 100 µM | [9] > 100 µM | [10] > 100 µM | [11] > 100 µM | [12] > 100 µM | [13] > 100 µM | [14] > 100 µM | [20] > 100 µM | [15] > 100 µM | [16] > 100 µM

Cn1ccnc1CCc1ccc(F)cc1F
inactive: [17] > 100 µM | [18] > 100 µM | [2] > 100 µM | [3] > 100 µM | [5] > 100 µM | [6] > 100 µM | [7] > 100 µM | [19] > 100 µM | [8] > 100 µM | [9] > 100 µM | [10] > 100 µM | [11] > 100 µM | [12] > 100 µM | [13] > 100 µM | [14] > 100 µM | [20] > 100 µM | [15] > 100 µM | [16] > 100 µM

O=c1[nH]nc(-c2cccc([N+](=O)[O-])c2)[nH]1
inactive: [17] > 100 µM | [1] > 100 µM | [18] > 100 µM | [2] > 100 µM | [3] > 100 µM | [4] > 100 µM | [5] > 100 µM | [7] > 100 µM | [19] > 100 µM | [8] > 100 µM | [9] > 100 µM | [10] > 100 µM | [11] > 100 µM | [12] > 100 µM | [13] > 100 µM | [20] > 100 µM | [15] > 100 µM | [16] 70.3 µM

Cc1nn(-c2ccccc2)c2nc(S)cnc12
inactive: [17] > 100 µM | [1] > 100 µM | [2] > 100 µM | [4] > 100 µM | [5] > 100 µM | [7] > 100 µM | [19] > 100 µM | [8] > 100 µM | [9] > 100 µM | [10] > 100 µM | [11] > 100 µM | [12] > 100 µM | [13] > 100 µM | [14] > 100 µM | [20] > 100 µM | [15] > 100 µM | [16] > 100 µM

CCc1nc(N)nc(N)c1-c1ccc(N2CCNCC2)cc1
inactive: [17] 54.3 µM | [1] > 97.3 µM | [18] 18.9 µM | [2] 62.7 µM | [3] 42.8 µM | [4] 35.2 µM | [5] 34.9 µM | [6] > 93.3 µM | [7] 64.7 µM | [8] > 100 µM | [9] > 83.8 µM | [10] > 100 µM | [11] 66.5 µM | [12] 49.3 µM | [13] 84.7 µM | [14] > 100 µM | [20] 87.7 µM | [15] 57.7 µM | [16] > 100 µM
